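Exposure lasted 48 hours, with cells grown in 96-well plates and compounds tested at five concentrations. GI50 is the concentration that inhibits growth by half. The concentration for full growth arrest is given as TGI.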
Assays:
Assay in all cases: DTP human tumour cell line panel, 48 h
[1] = tested on: COLO 205 colon
[2] = tested on: OVCAR-3 ovarian
[3] = tested on: RXF 393 renal
[4] = tested on: NCI/ADR-RES ovarian
[5] = tested on: NCI-H522 lung
[6] = tested on: HOP-92 NSCLC
[7] = tested on: SN12C renal
[8] = tested on: SR leukemia
[9] = tested on: OVCAR-4 ovarian
[10] = tested on: NCI-H460 lung
[11] = tested on: CCRF-CEM leukemia
[12] = tested on: TK-10 renal
[13] = tested on: MCF7 breast
[14] = tested on: OVCAR-8 ovarian
[15] = tested on: SF-295 CNS
[16] = tested on: U251 CNS
[17] = tested on: BT-549 breast
[18] = tested on: NCI-H226 lung
[19] = tested on: SF-268 CNS
[20] = tested on: KM12 colon
[21] = tested on: LOX IMVI melanoma
[22] = tested on: HS 578T breast
[23] = tested on: K-562 leukemia
[24] = tested on: CAKI-1 renal
[25] = tested on: 786-0 renal
[26] = tested on: SK-MEL-5 melanoma
[27] = tested on: HCC-2998 colon
[28] = tested on: NCI-H23 lung

OCCN(CCO)c1ncnc2c1ncn2Cc1ccc(CCl)cc1
GI50 [1]: 18.2 µM | TGI [1]: 46.8 µM | GI50 [2]: 19.4 µM | TGI [2]: 34.9 µM | GI50 [3]: 12 µM | TGI [3]: 37.1 µM | GI50 [4]: 24.7 µM | TGI [4]: 74.1 µM | GI50 [5]: 18.5 µM | TGI [5]: 46.6 µM | GI50 [6]: 16.4 µM | TGI [6]: 31.7 µM | GI50 [7]: 21 µM | TGI [7]: 45.8 µM | GI50 [8]: 6.94 µM | TGI [8]: > 100 µM | GI50 [9]: 18.8 µM | TGI [9]: 35.4 µM | GI50 [10]: 14.2 µM | TGI [10]: 30.8 µM | GI50 [11]: 11 µM | TGI [11]: 47.1 µM | GI50 [12]: 17.1 µM | TGI [12]: 33.4 µM | GI50 [13]: 6.3 µM | TGI [13]: 32.5 µM | GI50 [14]: 15.4 µM | TGI [14]: 31.7 µM | GI50 [15]: 17 µM | TGI [15]: 33.6 µM | GI50 [16]: 15.7 µM | TGI [16]: 29.8 µM | GI50 [17]: 11.7 µM | TGI [17]: 24.6 µM | GI50 [18]: 23.4 µM | TGI [18]: 58 µM | GI50 [19]: 19.8 µM | TGI [19]: 49.8 µM | GI50 [20]: 14.3 µM | TGI [20]: 29.2 µM | GI50 [21]: 16.4 µM | TGI [21]: 30.9 µM | GI50 [22]: 16 µM | TGI [22]: 36.9 µM | GI50 [23]: 17.7 µM | TGI [23]: > 100 µM | GI50 [24]: 14.5 µM | TGI [24]: 30 µM | GI50 [25]: 20.4 µM | TGI [25]: 37.8 µM | GI50 [26]: 10.9 µM | TGI [26]: 23.3 µM | GI50 [27]: 15.4 µM | TGI [27]: 28.9 µM | GI50 [28]: 18.3 µM | TGI [28]: 37.1 µM

From PubChem BioAssay (NCI)
